# Test system: chorioallantoic membrane (CAM) of 10 days embryonated eggs
# Test: Ocular irritation by HET CAM test
# Set-up: species or system hen
# Settings: 0.3 ml applied on CAM; bleeding, vasoconstriction, clotting
# From the text: The in vitro test described in the present example has been carried out in order to evaluate if the ocular topical administration of the liposomes could cause irritation to the eye. To such purpose, the in vitro HET CAM test as described in […]-Recommended Test Method Protocol has been carried out: Hen's Egg Test-Chorioallantoic Membrane (HET-CAM) Test Method. The HET CAM test has been carried out by observing the irritation effects (bleeding, vasoconstriction and clotting) induced on the chorioallantoic membrane (CAM) of 10 days embryonated eggs by applying 0.3 ml of liposomes under test and calculating the ocular irritation index (“OII”) according to the formula described in Table 6. [table] The liposomes under examination in the present test are F1 and F2 liposomes. By means of the same method, the following controls have been also tested: SDS 1% (positive control with slow irritation), 0.1 N NaOH (positive control with fast irritation) and NaCl 0.9% (negative control). The embryonated eggs for this test have been obtained by the […]. farm, Tarragona, Spain. The eggs are kept at a temperature of 12±1° C. for at least 24 hours before placing them into the incubator at controlled temperature (37.8° C.) and humidity (50-60%) during the incubation days. The data have been analyzed as mean ±standard deviation at the moment when the injury occurred (n=3/group).
smiles,measurement,value
"[Na+].[OH-] [0.1 N NaOH, NaOH]",Irritating effects (HET CAM),irritating effects
"CCCCCCCCCCCCOS(=O)(=O)[O-].[Na+] [SDS 1%, SDS]",Irritating effects (HET CAM),irritating effects

# Source: patent US20200046641A1, “LIPOSOMES FOR THE TREATMENT OF OCULAR DISEASES” (TDC Technology Dedicated to Care srl, priority 2018, published 2020)
